According to patent US5854241A, “Pyrido[3,2,1-I,J][3,1]benzoxazine derivatives” (Bayer Aktiengesellschaft, priority 1994, dated 1998):
Values after ≈ are worked out from the molar mass of the structure shown. Like-named read-outs stand apart in the source and are kept apart here.

What was measured:
Type in all cases: cell-based
[1] = system: Salmonella; experiment: MIC by serial agar dilution, Salmonella; details: Salmonella strain 1 Fr; Iso-Sensitest agar, 37° C., approx. 20 hours
Description: (§1) The minimum inhibitory concentrations (MICs) were determined by serial dilution methods using Iso-Sensitest agar (Oxoid). For each test substance, a series of agar plates was prepared whose active compound concentrations decreased as the dilution was doubled. The agar plates were inoculated using a multipoint inoculator (Denley). The cultures used for inoculation were overnight cultures of the pathogen which had previously been diluted to such an extent that each inoculation point contained approximately 10^4 colony-forming units. The inoculated agar plates were incubated at 37° C., and the microbial growth was read off after approximately 20 hours.
(§2) The following table lists the MIC values of some of the compounds according to the invention in comparison with 9-fluoro-3-methyl-10-(4-methyl-1-piperazinyl)-7-oxo-1H,3H,7H-pyrido[3,2,1- i,j]-[3,1]-benzoxazine-6-carboxylic acid (EP-O 373 531) as reference compound.

[2] = system: Pseudomonas; experiment: MIC by serial agar dilution, Pseudomonas; details: Pseudomonas strain BS 698 TGD; Iso-Sensitest agar, 37° C., approx. 20 hours
Description: as §1, §2

[3] = system: Enterobacter; experiment: MIC by serial agar dilution, Enterobacter; details: Enterobacter strain 0,4 Ge 02-33; Iso-Sensitest agar, 37° C., approx. 20 hours
Description: as §1, §2

[4] = system: E. coli; experiment: MIC by serial agar dilution, E. coli; details: Escherichia coli, 20 h, Iso-Sensitest agar, 37° C., approx. 20 hours
Description: as §1, §2

[5] = system: Staphylococcus aureus; experiment: MIC by serial agar dilution, Staphylococcus aureus; details: 20 h, Iso-Sensitest agar, 37° C., approx. 20 hours
Description: as §1, §2

[6] = system: Klebsiella pneumoniae; experiment: MIC by serial agar dilution, Klebsiella pneumoniae; details: Klebsiella pneumoniae strain 2363 Ge; Iso-Sensitest agar, 37° C., approx. 20 hours
Description: as §1, §2

[7] = E. coli strain Z 431 Lit, read-out: MIC
[8] = Staphylococcus aureus strain 3781 Ge
[9] = Staphylococcus aureus strain Z 2 Lit

SMILES | MIC [1] [µg/mL] | MIC [2] [µg/mL] | MIC [3] [µg/mL] | MIC ([4]; E. coli strain 21 Bui) [µg/mL] | MIC [4, 7] [µg/mL] | MIC [5, 8] [µg/mL] | MIC [5, 9] [µg/mL] | MIC [6] [µg/mL] | MIC ([4]; E. coli strain Z 431 Lit) [µg/mL]
CC1OCc2c(N3CC4CC=CC(N)C4C3)c(F)cc3c(=O)c(C(=O)O)cn1c23 (centres unmarked) [Example 1, 10-(2-Amino-8-azabicyclo[4,3,0]non-3-en-8-yl)-9-fluoro-3-methyl-7-oxo-1H,3H ,7H-pyrido-[3,2,1-i,j][3,1]benzoxazine6-carboxylic acid] | 0.06 (≈ 0.15 µM) | 4 (≈ 10 µM) | 0.25 (≈ 0.626 µM) | 4 (≈ 10 µM) | 0.015 (≈ 0.0376 µM) | 0.12 (≈ 0.3 µM) | 0.12 (≈ 0.3 µM) | 0.06 (≈ 0.15 µM) | –
CC1OCc2c(N3CC4CCCNC4C3)c(F)cc3c(=O)c(C(=O)O)cn1c23 (centres unmarked) [Example 4, 10-(2.8-Diazabicyclo[4,3,0]nonan-8-yl)-9-fluoro-3-methyl-7-oxo-1H,3H,7H-pyr ido-[3,2,1-i,j][3,1]benzoxazine-6-carboxylic acid] | 0.25 (≈ 0.645 µM) | 8 (≈ 20.6 µM) | 0.12 (≈ 0.31 µM) | 4 (≈ 10.3 µM) | 0.06 (≈ 0.155 µM) | 8 (≈ 20.6 µM) | 0.5 (≈ 1.29 µM) | 0.12 (≈ 0.31 µM) | –
CNC1C=CCC2CN(c3c(F)cc4c(=O)c(C(=O)O)cn5c4c3COC5C)CC21 (centres unmarked) [Example 5, 9-Fluoro-3-methyl-10-(2-methylamino-8-azabicyclo[4.3.0]non-3-en-8-yl)-7-oxo-1H,3H,7H-pyrido [3,2,1-i,j][3,]benzoxazine-6-carboxylic acid] | 0.12 (≈ 0.29 µM) | 16 (≈ 38.7 µM) | 0.12 (≈ 0.29 µM) | 4 (≈ 9.67 µM) | ≤ 0.015 | 0.12 (≈ 0.29 µM) | 0.12 (≈ 0.29 µM) | 0.12 (≈ 0.29 µM) | –
CC1OCc2c(N3CCN(C)CC3)c(F)cc3c(=O)c(C(=O)O)cn1c23 (centres unmarked) [Reference, 9-fluoro-3-methyl-10-(4-methyl-1-piperazinyl)-7-oxo-1H,3H,7H-pyrido[3,2,1-i,j]-[3,1]-benzoxazine-6-carboxylic acid, reference compound] | 1 (≈ 2.77 µM) | 64 (≈ 177 µM) | 1 (≈ 2.77 µM) | 0.05 (≈ 0.138 µM) | – | 128 (≈ 354 µM) | 16 (≈ 44.3 µM) | 0.5 (≈ 1.38 µM) | 0.05 (≈ 0.138 µM)
